Assay results taken from patent US4831155A (priority 1984, dated 1989).
Where two headings read alike, the source gives them in different places.

Tests used:
[1] = biological target: T1, acetylcholinesterase originating from "Electrophorus electricus" (Electrophorus electricus, UniProt O42275); assay: biochemical
[2] = test system: mice implanted with parietal electrodes; assay: electrocorticographic activity; assay type: in vivo; details: 10 mg/kg, 15 minutes after administration
Description: (§1) In particular, with regard to this latter aspect, an evaluation was made of the effects of the substance on spontaneous locomotor activity, and of the antagonisms of the heptyl derivative towards the central stimulating effects of anticholinergic drugs (scopolamine). An evaluation was also made of the effects of the substance on the electrocorticographic activity and on the inhibition of cerebral acetylcholinesterase (AchE) "in vivo".
(§2) The experiments were conducted using male Swiss mice with a weight of about 30 g.
The […] was recorded by a Beckmann polygraph.

[3] = test system: cerebral acetylcholinesterase (AchE); assay type: in vivo, mice
male Swiss mice [4] = assay: spontaneous locomotor activity in mice (two-part cage); assay type: in vivo
Description: as §1, §2
The test used for measuring the spontaneous locomotor activity was that employing a cage divided into two parts.

male Swiss mice [5] = assay: acute toxicity (lethal dose) in mice; assay type: in vivo
Description: (§3) The activity of the this product was evaluated in terms of its toxicity (lethal dose: LD) and its behavioural effects.
as §2
(§4) The acute toxic effects of the heptyl derivative were also evaluated as a comparison with the effects of physostigmine. […] Compared with physostigmine, the lethal dose 50 of the heptyl derivative is about 60 times greater, the LD50 for physostigmine being 0.6 mg/kg. The LD50 values were determined within two hours from the injection. Beyond this time, no obvious effects were observable. The LD50 values of other derivatives according to the present invention, evaluated with the same method resulted as follows: […]

[6] = acute toxicity (lethal dose) in mice; assay type: in vivo; details: mouse, in vivo, injection, determined within two hours, read-out: lethal dose 50 (LD50)
Description: as §3, §2, §4

[7] = biological target: T1, acetylcholinesterase originating from "Electrophorus electricus"
[8] = test system: acetylcholinesterase (AchE); assay: acetylcholinesterase (AChE) inhibition in the brain and serum after i.p. administration; assay type: in vivo, rats; details: n=4; for AChE inhibition, brain (M ± SE) / AChE inhibition, serum (M ± SE): Table I, 10 min, salicylate
Description: The acetylcholinesterase (AchE) inhibition in the brain and serum was tested for the heptyl derivative in comparison with physostigmine. Both physostigmine and heptyl derivative were used in form of salycilate and dissolved in distilled water with carbossimethyl cellulose sodium salt at 2%.

male Swiss mice [9] = assay: antagonism towards the central stimulating effects of scopolamine; assay type: in vivo
Description: as §1, §2
At the central cholinergic antagonists exert a stimulating action on spontaneous activity, a study was carried out of the antagonism towards the stimulating effects of scopolamine (a typical anticholinergic drug which acts at the central level) by the heptyl derivative. […] These activities show the existence of antagonism towards the central effects of scopolamine, indicative of a central effect of the heptyl derivative.

[10] = bimolecular rate constant, value = ki × 10^-5
[11] = first order carbamylation rate constant
[12] = first order reactivation rate constant, value = k3 × 10^2
[13] = Table II, i.p. equiactive doses: Phys. 0.2, Hept. 1.0 mg/Kg

T1 sequence (O42275 24-633): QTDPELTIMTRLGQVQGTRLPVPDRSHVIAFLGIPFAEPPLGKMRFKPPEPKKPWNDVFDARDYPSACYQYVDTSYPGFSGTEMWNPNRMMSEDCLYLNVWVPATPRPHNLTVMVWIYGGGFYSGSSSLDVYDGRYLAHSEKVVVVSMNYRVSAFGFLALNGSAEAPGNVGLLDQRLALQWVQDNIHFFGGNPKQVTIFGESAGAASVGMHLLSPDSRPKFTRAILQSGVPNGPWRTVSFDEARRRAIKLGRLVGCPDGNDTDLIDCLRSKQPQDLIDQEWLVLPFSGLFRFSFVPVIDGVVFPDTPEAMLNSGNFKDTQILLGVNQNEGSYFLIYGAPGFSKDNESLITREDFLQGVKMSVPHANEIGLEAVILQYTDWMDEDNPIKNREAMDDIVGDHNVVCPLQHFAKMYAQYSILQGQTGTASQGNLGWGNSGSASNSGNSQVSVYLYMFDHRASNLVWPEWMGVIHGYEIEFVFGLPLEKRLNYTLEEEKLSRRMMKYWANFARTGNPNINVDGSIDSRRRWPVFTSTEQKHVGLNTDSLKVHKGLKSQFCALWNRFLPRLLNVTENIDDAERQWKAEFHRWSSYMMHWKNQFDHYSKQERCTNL

CCCCCCCNC(=O)Oc1ccc2c(c1)[C@]1(C)CCN(C)[C@@H]1N2C [heptyl derivative, trimethyl-1,3a,8-hexahydro-1,2,3,3a,8,8a-pyrrol[2,3-b]indole-5(3aS, 8aR) heptylcarbamate]
IC50 [1]: 1 µM | Ki [1]: 0.053 µM | electrocorticographic amplitude [2]: an increase in its amplitude | electrocorticographic rate [2]: a slowing down of the electrocorticographic rate | effect on coloration of cerebral tissues (AchE inhibition) ([3]; 20 mg/kg, injected 15 minutes before sacrifice): evident diminution in the coloration of the cerebral tissues | duration of effect on coloration of cerebral tissues ([3]; 30 mg/kg): remained for more than one hour | effect on coloration of cerebral tissues (AchE inhibition) ([3]; 30 mg/kg, compared with 20 mg/kg): even more marked | reduction in locomotor activity compared with the controls (male Swiss mice [4]; 5 mg/kg): 25% | influence on spontaneous locomotor activity (male Swiss mice [4]; between 0.1 mg/kg and 3 mg/kg): does not influence spontaneous activity | effect on spontaneous locomotor activity (male Swiss mice [4]; doses higher than 3 mg/kg): a depressing effect is observed | lethal dose 100 (LD100) (male Swiss mice [5]; injection): 45 mg/kg | lethal dose 50 compared with physostigmine (male Swiss mice [5]; ratio to LD50 of physostigmine): about 60 times greater | LD50 at 2 h [6]: 35 mg/kg | ki × 10^-5 (± S.E.) [7, 10]: 2.8 ± 0.1 | k2 (± S.E.) [7, 11]: 7.2 ± 3.6 | k3 × 10^2 (± S.E.) [7, 12]: 0.71 ± 0.08 | AChE inhibition, brain (M ± SE) ([8]; 0.50 mg/kg i.p.): 25.55 ± 11.64% | AChE inhibition, serum (M ± SE) ([8]; 0.50 mg/kg i.p.): 20.85 ± 5.64% | AChE inhibition, brain (M ± SE) ([8]; 1.00 mg/kg i.p.): 50.00 ± 1.32% | AChE inhibition, serum (M ± SE) ([8]; 1.00 mg/kg i.p.): 59.40 ± 1.99% | AChE inhibition, brain (M ± SE) ([8]; 2.00 mg/kg i.p.): 53.62 ± 10.51% | AChE inhibition, serum (M ± SE) ([8]; 2.00 mg/kg i.p.): 67.42 ± 4.29% | AChE inhibition, brain (M ± SE) ([8]; 4.00 mg/kg i.p.): 72.35 ± 5.92% | AChE inhibition, serum (M ± SE) ([8]; 4.00 mg/kg i.p.): 79.42 ± 2.89% | % AChE Inhibition, brain, 10 minutes (M ± SE) [8, 13]: 50.00 ± 1.32% | % AChE Inhibition, brain, 60 minutes (M ± SE) [8, 13]: 28.46 ± 9.56% | % AChE Inhibition, brain, 120 minutes (M ± SE) [8, 13]: 22.45± 2.54% | % AChE Inhibition, serum, 10 minutes (M ± SE) [8, 13]: 59.40 ± 1.99% | % AChE Inhibition, serum, 60 minutes (M ± SE) [8, 13]: 41.15 ± 4.29% | % AChE Inhibition, serum, 120 minutes (M ± SE) [8, 13]: 21.53 ± 2.31% | antagonism of scopolamine-induced stimulation (male Swiss mice [9]; 3 mg/kg against scopolamine 1 mg/kg): restored the activity to the control values | effect of the dose per se (male Swiss mice [9]; 3 mg/kg alone): ineffective

CCCCCCCCCNC(=O)Oc1ccc2c(c1)[C@]1(C)CCN(C)[C@@H]1N2C [n.nonyl derivative]
IC50 [1]: 1.5 µM | LD50 at 2 h [6]: 50 mg/kg | ki × 10^-5 (± S.E.) [7, 10]: 1.5 ± 0.1

CN(C)C(=O)Oc1ccc2c(c1)[C@]1(C)CCN(C)[C@@H]1N2C [dimethyl derivative, Pyrrolo [2,3-b]indol-5-ol,3,3a,8,8a-hexahydro-1,3a,8-trimethyl-dimethylcarbamate (ester),(3aS-cis)]
IC50 [1]: 3.1 µM | Ki [1]: 0.348 µM | LD50 at 2 h [6]: 9 mg/kg | ki × 10^-5 (± S.E.) [7, 10]: 0.2 ± 0.05 | k2 (± S.E.) [7, 11]: 8.8 ± 3.3 | k3 × 10^2 (± S.E.) [7, 12]: 8.5 ± 1.2

CCCNC(=O)Oc1ccc2c(c1)[C@]1(C)CCN(C)[C@@H]1N2C [n.Propyl-, trimethyl-1,3a,8-hexahydro-1,2,3a,8,8a-pyrrol[2,3-b]indole-5(3aS, 8aR) propylcarbamate]
IC50 [1]: 2.5 µM | ki × 10^-5 (± S.E.) [7, 10]: 0.9 ± 0.1

CCNC(=O)Oc1ccc2c(c1)[C@]1(C)CCN(C)[C@@H]1N2C [Ethyl-]
IC50 [1]: 1 µM | Ki [1]: 0.13 µM | ki × 10^-5 (± S.E.) [7, 10]: 2.3 ± 0.1 | k2 (± S.E.) [7, 11]: 3.5 ± 1.1 | k3 × 10^2 (± S.E.) [7, 12]: 2.5 ± 0.3

CN1[C@@H]2C[C@@H](OC(=O)[C@H](CO)c3ccccc3)C[C@H]1[C@@H]1O[C@@H]12 [scopolamine, reference compound]
increase in basic locomotor activity (male Swiss mice [9]; scopolamine 1 mg/kg): 100%

CCN(CC)C(=O)Oc1ccc2c(c1)[C@]1(C)CCN(C)[C@@H]1N2C [diethyl derivative, Pyrrolo [2,3-b]indol-5-ol,3,3a,8,8a-hexahydrol,3a,8-trimethyl-diethylcarbamate (ester), (3aS-cis)]
IC50 [1]: 680 µM | LD50 at 2 h [6]: 38 mg/kg | ki × 10^-5 (± S.E.) [7, 10]: 0.004

CNC(=O)Oc1ccc2c(c1)[C@]1(C)CCN(C)[C@@H]1N2C [Eserine, reference compound]
effect on coloration of cerebral tissues (AchE inhibition) ([3]; 0.4 and 0.5 mg/kg): no evident effect | effect on spontaneous locomotor activity (analogous to depressing effect of heptyl derivative) (male Swiss mice [4]; doses between 0.1 and 0.3 mg/kg): An analogous effect | LD50 at 2 h [6]: 0.6 mg/kg | k2 (± S.E.) [7]: 8.8 ± 1.0 | k3 × 10^2 (± S.E.) [7]: 5.4 ± 0.2 | ki × 10^-5 (± S.E.) [7]: 26.6 ± 0.8 | AChE inhibition, brain (M ± SE) ([8]; 0.15 mg/kg i.p.): 39.18 ± 4.32% | % AChE Inhibition, brain, 60 minutes (M ± SE) [8, 13]: 12.47 ± 2.83% | % AChE Inhibition, brain, 120 minutes (M ± SE) [8, 13]: 3.28 ± 1.99%

CCCCNC(=O)Oc1ccc2c(c1)[C@]1(C)CCN(C)[C@@H]1N2C [n.butyl derivative]
IC50 [1]: 3.5 µM | Ki [1]: 0.026 µM | LD50 at 2 h [6]: 6 mg/kg | ki × 10^-5 (± S.E.) [7, 10]: 2.0 ± 0.1 | k2 (± S.E.) [7, 11]: 6.7 ± 3.5 | k3 × 10^2 (± S.E.) [7, 12]: 0.45 ± 0.14

CCCCCCCCCCCNC(=O)Oc1ccc2c(c1)[C@]1(C)CCN(C)[C@@H]1N2C [Undecyl-, trimethyl-1,3a,8-hexahydro-1,2,3,3a,8,8a-pyrrol[2,3-b]indole-5(3aS, 8aR) undecylcarbamate]
IC50 [1]: 2.9 µM | ki × 10^-5 (± S.E.) [7, 10]: 0.8 ± 0.1
